Laboratory results from patent publication US5039665A, “Use of fructose-1,6-diphosphate for treating myocardial infarction” (priority 1990, dated 1991).
Values joined by “and” are separate entries in the source; they are usually repeats but may differ in a detail not shown here. Identical values can stand only once. “Also recorded” adds a separate entry of the source.

What was measured:
[1] = test system: fluid deprived dogs after endotoxin; test: endotoxin shock in fluid deprived dogs (1 mg/kg endotoxin); assay type: in vivo, dog; conditions: no fluid given; three pairs
Text: In three pairs no fluid was given except for the FDP and glucose.

[2] = test system: dogs with acute regional myocardial ischemia; test: acute regional myocardial ischemia in dogs (coronary artery occlusion); assay type: in vivo, dog; conditions: FIG. 3; ischemic and normally perfused myocardium
[3] = plasma lactic acid after intravenous FDP in dogs; assay type: in vivo, dog
Text: (§1) To allow for a broader and more complete interpretation of the results, a small paragraph will be devoted to the ability of FDP to cross the cellular membranes.

[4] = test system: dogs anesthetized with Surital; test: analeptic effect of intra-carotid administration on Surital (thiamylal) anesthesia in dogs; assay type: in vivo, dog; conditions: for time required for return of observable eyelid reflex: after beginning the infusion into the carotid artery (±SDM); for time required to regain walking ability: mean, p<0.001 FDP vs dextrose; for Able To Sit / Able To Walk / Eyes Open / Lifts Head / Response To Pain: time after beginning of infusion, individual dogs
Method: In this paired test 10 dogs were anesthetized with Surital 35mg/kg IV. Within 10 minutes after induction of anesthesia, a #7 Sones catheter was placed in a common carotid artery via the femoral artery under fluoroscopic guidance. […] Immediately following the contrast media injection the infusion of FDP or glucose was initiated (9-13 min. after induction of anesthesia). The FDP was prepared as a 5% solution and infused at a constant rate of 1.91 ml/min. (97.5 mg/min.) into a main carotid artery. The controls received equal amounts of 5% dextrose via the same route. The analeptic effect of FDP on signs, stages and depth of anesthesia was evaluated by determining the time required for reappearance of eyelid reflex, opening of eyes, deglutiton, response to pain, lifting of the head, sitting, and when the animal was able to walk.

[5] = test system: hearts of mongrel dogs subjected to normothermic arrest; test: global ischemia on cardiopulmonary bypass, normothermic arrest for one hour; assay type: in vivo, dog
Method: To evaluate the effect of FDP on global ischemia, 14 mongrel dogs were placed on cardiopulmonary bypass and their hearts were subjected to normothermic arrest for one hour. Seven animals had 50 ml. of 5% glucose in 0.9% NaCl infused into the base of the aorta at 0 minutes, 20 minutes and 40 minutes following cross-clamping and, systemically, during reperfusion. The remaining 7 animals were treated identically except that 50 mg. of FDP was given instead of glucose and 2mg/kg/minute was infused systemically during reperfusion. Hemodynamic measurements were taken before ischemia and at 15 and 30 minutes following reperfusion using an isovolumetric technique.

dog WBC = test: carbohydrate metabolism of dog white blood cells in vitro; assay type: cell-based
Method: (§2) The tests were also conducted to investigate the effect of FDP on white blood cells (WBC) on metabolism in vitro. […] It was experimentally assessed whether FDP can stimulate the carbohydrate metabolism of these cells at rest. A similar phenomenon observed for normal human erythrocytes, sickle cells and dog erythrocytes. From healthy humans and dogs, the white blood cells were separated and incubated at 37° Celsius for various periods of time with FDP, glucose and normal saline. At the end of incubation, ATP and intermediates of the glycolytic pathway were assessed. […] The pyruvic acid concentration in dog WBC incubated with FDP was 10 times greater than those incubated in glucose while those for the human WBC, this difference was of much lesser degree (X2). The dihydroxyacetone (DHA) in the human and canine WBC was 5 to 10 times greater in the FDP incubated than in the glucose ones.

[6] = test system: dogs in surgical anesthesia; test: anesthetic requirement to maintain surgical anesthesia in dogs; assay type: in vivo, dog; conditions: FDP n=104 vs controls n=103
[7] = tissue ATP, lactate, FDP and trioses after IV FDP; assay type: in vivo; conditions: IV administration
Text: as §1

rabbit ileum = test: force of contraction of isolated rabbit ileum; conditions: added to perfusate
Text: as §1

[8] = test system: dogs subjected to endotoxin shock; test: endotoxin shock in dogs (E. coli endotoxin) with fluid support; assay type: in vivo, dog
Method: The study was also conducted to determine whether IV administration of FDP to dogs subjected to lethal doses of endotoxin will prevent damage to the intestinal mucosa, and death. The rationale was that endotoxin per se and its deleterious effect on hemolate phase acidosis inhibits glycolysis by inactivation of the rate limiting enzyme phosphofructokinase.
Endotoxin shock was produced in digs by IV injection of E. coli endotoxin. Survival of control animals which received glucose and volume replacement was 18%d while for those treated with FDP it was 90%.
FIG. 5 is a diagram showing the intestinal fluid loss and urine output of dogs subjected to endotoxin shock. Seven dogs were treated with equimolar FDP and eight received glucose. All animals received fluid supportive therapy (150 ml. of Rheomacrodex and 300 cc. of Lactate Ringer).
Seven were treated with FDP and the controls (8) received equimolar glucose.

human WBC = test: carbohydrate metabolism of human white blood cells in vitro; assay type: cell-based; conditions: for ATP content: incubated at 37° Celsius
Method: as §2

[9] = FDP distribution after intracardiac administration in rat; assay type: in vivo; conditions: 10 min after administration
Text: as §1

acute lethality in dogs = conditions: dog, in vivo; administered 500 mg/min in dogs; approximately
Text: From an energetic point of view the advantage of using FDP as the initial substrate is that the net yield of the anaerobic metabolism of one mole of glucose is 2 ATP, while if one mole of FDP is metabolized in the same conditions it will produce 4 ATP because there is no phosphorylation of glucose and fructose-6-phosphate, reactions which require utilization of ATP. On the other hand, while doubling the quantity of ATP produced, lactate production remains the same as though one mole of glucose had been metabolized. It is obvious that in order to obtain results in the direction of making usuable energy from FDP, it is necessary to administer a large quantity. (The LD50 of FDP when administered 500 mg/min in dogs is approximately 5.8-6 g/kg.)

[10] = test system: experimental animals and man; test: antishock activity in experimental animals and in man; conditions: in vivo
[11] = test system: dogs anesthetized with Surital; test: analeptic effect of intra-carotid administration on Surital (thiamylal) anesthesia in dogs; assay type: in vivo, dog; conditions: systemic administration
heart preparation = conditions: infusion of Locke's solution plus sugar; cited from earlier work
[12] = 5 g of FDP IV over 10 min, at one hour
[13] = 5 to 50 mg/ml FDP, no AMP or ADP

O=C(COP(=O)(O)O)[C@@H](O)[C@H](O)[C@H](O)COP(=O)(O)O [FDP, fructose-1,6-diphosphate]
survival [1]: survived and are still living (five months after the experiment) | ATP and CP content in the myocardium [2]: increase of ATP and CP in ischemic myocardium, but also in the normally perfused heart muscle | tissue lactic acid concentration [2]: The same phenomenon was observed for the tissue lactic acid concentration | plasma lactic acid [3, 12]: 16.45±2.16 mg % | plasma lactic acid increase [3, 12]: 21/2 | plasma lactic acid ([3]; before FDP (baseline)): 6.13±1.7 mg % | time required for return of observable eyelid reflex [4]: 3.70 ± 0.67 min | time to regain consciousness and be able to walk (in words) ([4]; intra-carotid administration): greatly reduces the time required for the animal to regain consciousness and be able to walk | time required to regain walking ability [4]: 76.6 ± 16 min | Able To Sit [4]: 48 min and 47 min and 35 min and 52 min and 40 min | Able To Walk [4]: 60 min and 70 min and 50 min and 95 min and 82 min | Eyes Open [4]: 7 min and 14 min and 5 min and 12 min and 4 min | Lifts Head [4]: 28 min and 33 min and 14 min and 19 min and 20 min | Response To Pain [4]: 17 min and 19 min and 10 min and 18 min and 15 min | ML to LVEDP of 20 mmHg ([5]; 15 minutes after reperfusion): 33.6 ± 3.7 mL | Peak Effective pressure ([5]; 15 minutes after reperfusion): 102.1 ± 11.5 mmHg | Peak Mean pressure ([5]; 15 minutes after reperfusion): 52.8 ± 5.4 mmHg | Peak dp/dt ([5]; 15 minutes after reperfusion): 2242 ± 226 mmHg/sec | ML to LVEDP of 20 mmHg ([5]; 30 minutes after reperfusion): 36.1 ± 3.3 mL | Peak Effective pressure ([5]; 30 minutes after reperfusion): 125 ± 11.5 mmHg | Peak Mean pressure ([5]; 30 minutes after reperfusion): 61.4 ± 5.1 mmHg | Peak dp/dt ([5]; 30 minutes after reperfusion): 3999 ± 404 mmHg/sec | contractility and compliance during recovery ([5]; Intra-aortic and systemic administration): Both contractility and compliance are vastly improved | ML to LVEDP of 20 mmHg ([5]; Pre-Ischemia): 39.3 ± 3.2 mL | Peak Effective pressure ([5]; Pre-Ischemia): 165 ± 12.9 mmHg | Peak Mean pressure ([5]; Pre-Ischemia): 77.5 ± 4.6 mmHg | Peak dp/dt ([5]; Pre-Ischemia): 4710 ± 689 mmHg/sec | effect on carbohydrate metabolism (dog WBC): profound stimulating effect on the carbohydrate metabolism | concentration dependence of ATP production (dog WBC; [13]): independent of the concentration (from 5 to 50 mg/ml), but rather a function of the incubation time | concentration dependence of ATP increase (dog WBC; AMP or ADP added): the increase of ATP becomes a function of the FDP concentration | pyruvic acid concentration, FDP versus glucose (dog WBC; dog WBC): 10 times | anesthetic required [6]: twice as much anesthetic | ATP, lactate, and FDP in tissues [7]: increase of ATP, lactate, and FDP in all tissues that we have studied | trioses in the Embden-Meyerhof pathway [7]: increases in the trioses | force of contraction (rabbit ileum): increases the force of contraction | Urinary output ([8]; dog, in vivo): 276±98 ml/6 hours | blood in the fluid lost from the intestine ([8]; dog, in vivo): no blood was observed; also recorded: no blood was noted | intestinal fluid loss ([8]; dog, in vivo): 285±36 ml/6 hours | stomach and intestine mucosa findings ([8]; dog, in vivo): only some vascular congestion was noted | survival ([8]; dog, in vivo): 90% | death, intestinal hemorrhage and fluid loss, renal function, mucosal necrosis ([8]; lethal doses of endotoxin): prevents death, intestinal hemorrhage and fluid loss, conserves normal renal function and protects the mucosa of the stomach and intestine from hemorrhagic necrosis | effect on carbohydrate metabolism (human WBC): profound stimulating effect on the carbohydrate metabolism | concentration dependence of ATP production (human WBC; [13]): independent of the concentration (from 5 to 50 mg/ml), but rather a function of the incubation time | concentration dependence of ATP increase (human WBC; AMP or ADP added): the increase of ATP becomes a function of the FDP concentration | ATP content (human WBC): 2.47±0.25 m.mole/#WBC | concentration of FDP in the liver versus plasma [9]: five | LD50 (acute lethality in dogs): 5800 to 6000 mg/kg | antishock activity [10]: profound antishock activity in experimental animals and in man | analeptic effect [11]: The same analeptic effect, but to a much lesser degree

O=C[C@H](O)[C@@H](O)[C@H](O)[C@H](O)CO [glucose, reference compound]
time to death [1]: 21/2 | amplitude and frequency of heart beats, lactic acid, pH and potassium during recovery (heart preparation): no significant difference | time required for return of observable eyelid reflex [4]: 70.00 ± 25 min | time required to regain walking ability [4]: 295.00 ± 24.49 min | Able To Sit [4]: 300 min and 225 min and 310 min and 215 min | Able To Walk [4]: 310 min and 300 min and 330 min and 280 min and 265 min | Eyes Open [4]: 80 min and 75 min and 105 min and 54 min and 40 min | Lifts Head [4]: 170 min and 135 min and 190 min and 165 min and 120 min | Response To Pain [4]: 120 min and 130 min and 160 min and 125 min and 100 min | ML to LVEDP of 20 mmHg ([5]; 15 minutes after reperfusion): 23.3 ± 1.8 mL | Peak Effective pressure ([5]; 15 minutes after reperfusion): 36.9 ± 4.4 mmHg | Peak Mean pressure ([5]; 15 minutes after reperfusion): 17.8 ± 4.2 mmHg | Peak dp/dt ([5]; 15 minutes after reperfusion): 1126 ± 216 mmHg/sec | ML to LVEDP of 20 mmHg ([5]; 30 minutes after reperfusion): 19.3 ± 1.3 mL | Peak Effective pressure ([5]; 30 minutes after reperfusion): 50.8 ± 6.3 mmHg | Peak Mean pressure ([5]; 30 minutes after reperfusion): 20.5 ± 2.9 mmHg | Peak dp/dt ([5]; 30 minutes after reperfusion): 1698 ± 350 mmHg/sec | ML to LVEDP of 20 mmHg ([5]; Pre-Ischemia): 51.4 ± 8.6 mL | Peak Effective pressure ([5]; Pre-Ischemia): 144.6 ± 14.6 mmHg | Peak Mean pressure ([5]; Pre-Ischemia): 66.4 ± 7.4 mmHg | Peak dp/dt ([5]; Pre-Ischemia): 4894 ± 689 mmHg/sec | blood in the fluid lost from the intestine ([8]; dog, in vivo): In all controls there was blood in the fluid lost from the intestine | survival ([8]; dog, in vivo): 18% | ATP content (human WBC): 1.28±0.21 m.mole/#WBC
